# Source: patent US6451735B1, “Glyphosate formulation” (priority 1998, dated 2002)
# Where a name gives a salt, the structure may show the parent alone.
# Test: solubility in water and solution density of glyphosate salt
# Assay type: physicochemical
smiles,measurement,setting,value
"O=C(O)CNCP(=O)(O)O [potassium salt of glyphosate, N-phosphonomethylglycine]",density of solutions,aqueous solution,about 1.45 g/cc
same,solubility in water,water,readily soluble
